Source: US20250282749A1 (Tango Therapeutics, Inc., priority 2022, published 2025)

What was measured:
Type in all cases: cell-based
[1] = system: PRMT5 (SDMA) in HAP1 MTAP-intact cell line; experiment: SDMA in-cell western assay, HAP1 MTAP-intact cell line; details: Homo sapiens, HAP1 MTAP-intact cell line (endogenous MTAP), read-out: Hap 1 MTAP intact IC50
Source text: (§1) HAP1 MTAP-intact is a cell line in which endogenous levels of MTAP are expressed, and HAP1 MTAP-deleted is an MTAP-null cell line.

[2] = system: PRMT5 (SDMA) in HAP1 MTAP-deleted cell line; experiment: SDMA in-cell western assay, HAP1 MTAP-deleted cell line; details: for IC50 / IC90: Homo sapiens, SDMA in-cell western, HAP1 MTAP-deleted (MTAP-null) cell line; for Hap1 MTAP intact/deleted ratio: ratio of SDMA in-cell western IC50 in HAP1 MTAP-intact to IC50 in HAP1 MTAP-deleted cell line
Source text: as §1

[3] = system: HAP1 MTAP-deleted cell line; experiment: viability assay for the MTAP-deleted cell line; details: Homo sapiens

IC50 [1] [nM] | IC50 [2] [nM] | IC90 [2] [nM] | SMILES | Hap1 MTAP intact/deleted ratio [2] | IC50 [3] [nM]
> 50 | > 50 | > 125 | Cc1cc(NC(=O)C(=O)N2C[C@@H](C)N(CC(C)C)C[C@@H]2c2ccc(F)cc2)cnc1N [Compound 154, N-(6-amino-5-methyl-3-pyridyl)-2-[(2S,5R)-2-(4-fluorophenyl)-4-isobutyl-5-methyl-piperazin-1-yl]-2-oxo-acetamide] | C (an IC50 ratio of less than 15 fold) | > 1000
5 to 50 | < 5 | < 75 | CC(C)CN1C[C@H](c2ccccc2)N(C(=O)C(=O)Nc2cnc(N)c3cn[nH]c23)C[C@H]1C [Compound 16] | A (an IC50 ratio greater than or equal to 30 fold) | < 100
> 50 | 5 to 50 | > 125 | Cc1cc(NC(=O)C(=O)N2CCN(C(=O)C3(C(F)(F)F)CC3)[C@H](C)[C@H]2c2ccc(F)cc2)cnc1N (stereo in doubt) [Compound 118, N-(6-amino-5-methyl-3-pyridyl)-2-[2-(4-fluorophenyl)-3-methyl-4-[1-(trifluoromethyl)cyclopropanecarbonyl]piperazin-1-yl]-2-oxo-acetamide] | B (an IC50 ratio greater than or equal to 15 fold but lower than 30 fold) | 100 to 1000
> 50 | < 5 | 75 to 125 | C[C@@H]1CN(C(=O)C(=O)Nc2cnc(N)c3cn[nH]c23)[C@@H](c2ccc(F)cc2)CN1C [Compound 135] | A (an IC50 ratio greater than or equal to 30 fold) | 100 to 1000
> 50 | 5 to 50 | 75 to 125 | Cc1cc(NC(=O)C(=O)N2C[C@@H](C)N(C(=O)CC3(C)CC3)C[C@@H]2c2ccccc2)cnc1N [Compound 49] | C (an IC50 ratio of less than 15 fold) | 100 to 1000
> 50 | < 5 | < 75 | C[C@@H]1CN(C(=O)C(=O)Nc2cnc(N)c(C3COC3)c2)[C@@H](c2ccc(F)cc2)CN1C(=O)OC(C)(C)C [Compound 2, (2R,5S)-tert-butyl 4-(2-((6-amino-5-(oxetan-3-yl)pyridin-3-yl)amino)-2-oxoacetyl)-5-(4-fluorophenyl)-2-methylpiperazine-1-carboxylate] | C (an IC50 ratio of less than 15 fold) | < 100
5 to 50 | < 5 | – | C[C@@H]1CN(C(=O)C(=O)Nc2cnc(N)c3cn[nH]c23)[C@@H](c2ccccc2)CN1C1CCC1 (racemic) [Compound 163, N-(4-Amino-2H-pyrazolo[4,3-c]pyridin-7-yl)-2-oxo-2-[rac-(2S,5R)-4-cyclobutyl-5-methyl-2-phenyl-piperazin-1-yl]acetamide] | C (an IC50 ratio of less than 15 fold) | < 100
> 50 | 5 to 50 | < 75 | CC(C)C(=O)N1C[C@H](c2cccc(Cl)c2)N(C(=O)C(=O)Nc2cnc(N)c(C3CC3)c2)C[C@H]1C [Compound 133, N-(6-amino-5-cyclopropylpyridin-3-yl)-2-((2S,5R)-2-(3-chlorophenyl)-4-isobutyryl-5-methylpiperazin-1-yl)-2-oxoacetamide] | B (an IC50 ratio greater than or equal to 15 fold but lower than 30 fold) | < 100
5 to 50 | < 5 | < 75 | CCc1cc(NC(=O)C(=O)N2C[C@@H](C)N(C(=O)C(C)(C)C)C[C@@H]2c2ccc(F)cc2)cnc1N [Compound 33, N-(6-amino-5-ethylpyridin-3-yl)-2-((2S,5R)-2-(4-fluorophenyl)-5-methyl-4-pivaloylpiperazin-1-yl)-2-oxoacetamide] | C (an IC50 ratio of less than 15 fold) | < 100
